Source: the supplement of paper PMC11061612

What was measured:
Capivasertib = compound: C1CN(CCC1(C(=O)N[C@@H](CCO)C2=CC=C(C=C2)Cl)N)C3=NC=NC4=C3C=CN4 [Capivasertib]; conditions: max 10 µM
Outline: (§1)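 In 1536-well plates, cancer cell lines in 7.5 μl DMEM/F12 or RPMI with 10% FBS spent 24 hours at 37°C and 5% CO2 and were then dosed for 72 hours with final DMSO typically 0.2%. Viability was read by CellTiter-Glo 2.0 luminescence and scaled between blank-well and DMSO-well means. The single-agent IC50 was fitted from dose responses using a logistic curve in a non-linear mixed effects model, and that logistic curve had two parameters.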

AZD4320 = compound: CN(CC[C@H](CSC1=CC=CC=C1)NC2=C(C=C(C=C2)S(=O)(=O)NC(=O)C3=CC=C(C=C3)N4CCC(CC4)[C@H](C5=CC=CC=C5C6=CC=C(C=C6)Cl)O)S(=O)(=O)C(F)(F)F)CCO [AZD4320]; conditions: max 1 µM
Outline: as §1

Alisertib = compound: COc1cc(Nc2ncc3c(n2)-c2ccc(Cl)cc2C(c2c(F)cccc2OC)=NC3)ccc1C(=O)O [Alisertib]; conditions: max 10 µM
Outline: as §1

AZD5153 = compound: COc1nnc2ccc(N3CCC(c4ccc(OCCN5CCN(C)C(=O)[C@H]5C)cc4)CC3)nn12 [AZD5153]; conditions: max 1 µM
Outline: as §1

Taselisib = compound: Cc1nc(-c2cn3c(n2)-c2ccc(-c4cnn(C(C)(C)C(N)=O)c4)cc2OCC3)n(C(C)C)n1 [Taselisib]; conditions: max 10 µM
Outline: as §1

AZD2811 = compound: CCN(CCO)CCCOc1ccc2c(Nc3cc(CC(=O)Nc4cccc(F)c4)[nH]n3)ncnc2c1 [AZD2811]; conditions: max 1 µM
Outline: as §1

Prexasertib = compound: COc1cccc(OCCCN)c1-c1cc(Nc2cnc(C#N)cn2)n[nH]1 [Prexasertib]; conditions: max 1 µM
Outline: as §1

Crizotinib = compound: C[C@@H](Oc1cc(-c2cnn(C3CCNCC3)c2)cnc1N)c1c(Cl)ccc(F)c1Cl [Crizotinib]; conditions: max 10 µM
Outline: as §1

AZD1775 = compound: C=CCn1c(=O)c2cnc(Nc3ccc(N4CCN(C)CC4)cc3)nc2n1-c1cccc(C(C)(C)O)n1 [AZD1775]; conditions: max 3 µM
Outline: as §1

Lapatinib = compound: CS(=O)(=O)CCNCc1ccc(-c2ccc3ncnc(Nc4ccc(OCc5cccc(F)c5)c(Cl)c4)c3c2)o1 [Lapatinib]; conditions: max 10 µM
Outline: as §1

Dasatinib = compound: CC1=C(C(=CC=C1)Cl)NC(=O)C2=CN=C(S2)NC3=CC(=NC(=N3)C)N4CCN(CC4)CCO [Dasatinib]; conditions: max 2 µM
Outline: as §1

Palbociclib = compound: CC(=O)c1c(C)c2cnc(Nc3ccc(N4CCNCC4)cn3)nc2n(C2CCCC2)c1=O [Palbociclib]; conditions: max 10 µM
Outline: as §1

Venetoclax = compound: CC1(C)CCC(CN2CCN(c3ccc(C(=O)NS(=O)(=O)c4ccc(NCC5CCOCC5)c([N+](=O)[O-])c4)c(Oc4cnc5[nH]ccc5c4)c3)CC2)=C(c2ccc(Cl)cc2)C1 [Venetoclax]; conditions: max 1 µM
Outline: as §1

SN-38 = compound: CCc1c2c(nc3ccc(O)cc13)-c1cc3c(c(=O)n1C2)COC(=O)[C@]3(O)CC [SN-38]; conditions: max 0.3 µM
Outline: as §1

AZD1390 = compound: CC(C)n1c(=O)n(C)c2cnc3cc(F)c(-c4ccc(OCCCN5CCCCC5)nc4)cc3c21 [AZD1390]; conditions: max 0.3 µM
Outline: as §1

AZD7648 = compound: Cc1cc2ncnn2cc1Nc1ncc2c(n1)n(C1CCOCC1)c(=O)n2C [AZD7648]; conditions: max 10 µM
Outline: as §1

SG3199 = compound: CC1=CN2[C@@H](C1)C=NC3=CC(=C(C=C3C2=O)OC)OCCCCCOC4=C(C=C5C(=C4)N=C[C@@H]6CC(=CN6C5=O)C)OC [SG3199]; conditions: max 0.001 µM
Outline: as §1

Trametinib = compound: CC(=O)Nc1cccc(-n2c(=O)n(C3CC3)c(=O)c3c(Nc4ccc(I)cc4F)n(C)c(=O)c(C)c32)c1 [Trametinib]; conditions: max 1 µM
Outline: as §1

Olaparib = compound: O=C(c1cc(Cc2n[nH]c(=O)c3ccccc23)ccc1F)N1CCN(C(=O)C2CC2)CC1 [Olaparib]; conditions: max 10 µM
Outline: as §1

AZD6738 = compound: C[C@@H]1COCCN1C2=NC(=NC(=C2)C3(CC3)[S@](=N)(=O)C)C4=C5C=CNC5=NC=C4 [AZD6738]; conditions: max 10 µM
Outline: as §1

Doxorubicin = compound: COc1cccc2c1C(=O)c1c(O)c3c(c(O)c1C2=O)C[C@@](O)(C(=O)CO)C[C@@H]3O[C@H]1C[C@H](N)[C@H](O)[C@H](C)O1 [Doxorubicin]; conditions: max 1 µM
Outline: as §1

MK-2206 = compound: NC1(c2ccc(-c3nc4ccn5c(=O)[nH]nc5c4cc3-c3ccccc3)cc2)CCC1 [MK-2206]; conditions: max 10 µM
Outline: as §1

AZD8186 = compound: C[C@@H](Nc1cc(F)cc(F)c1)c1cc(C(=O)N(C)C)cc2c(=O)cc(N3CCOCC3)oc12 [AZD8186]; conditions: max 3 µM
Outline: as §1

AZD5991 = compound: Cc1c2c(nn1C)CSCc1cc(n(C)n1)CSc1cc(c3ccccc3c1)OCCCc1c(C(=O)O)n(C)c3c-2c(Cl)ccc13 [AZD5991]; conditions: max 1 µM
Outline: as §1

Selumetinib = compound: Cn1cnc2c(F)c(Nc3ccc(Br)cc3Cl)c(C(=O)NOCCO)cc21 [Selumetinib]; conditions: max 10 µM
Outline: as §1

AZD0156 = compound: CN(C)CCCOc1ccc(-c2ccc3ncc4c(c3c2)n(C2CCOCC2)c(=O)n4C)cn1 [AZD0156]; conditions: max 3 µM
Outline: as §1

Gefitinib = compound: COc1cc2ncnc(Nc3ccc(F)c(Cl)c3)c2cc1OCCCN1CCOCC1 [Gefitinib]; conditions: max 10 µM
Outline: as §1

Savolitinib = compound: C[C@@H](c1ccc2nccn2c1)n1nnc2ncc(-c3cnn(C)c3)nc21 [Savolitinib]; conditions: max 1 µM
Outline: as §1

Cell Line	IC50, cell viability 72 h (Capivasertib) [µM]	IC50, cell viability 72 h (AZD4320) [µM]	IC50, cell viability 72 h (Alisertib) [µM]	IC50, cell viability 72 h (AZD5153) [µM]	IC50, cell viability 72 h (Taselisib) [µM]	IC50, cell viability 72 h (AZD2811) [µM]	IC50, cell viability 72 h (Prexasertib) [µM]	IC50, cell viability 72 h (Crizotinib) [µM]	IC50, cell viability 72 h (AZD1775) [µM]	IC50, cell viability 72 h (Lapatinib) [µM]	IC50, cell viability 72 h (Dasatinib) [µM]	IC50, cell viability 72 h (Palbociclib) [µM]	IC50, cell viability 72 h (Venetoclax) [µM]	IC50, cell viability 72 h (SN-38) [µM]	IC50, cell viability 72 h (AZD1390) [µM]	IC50, cell viability 72 h (AZD7648) [µM]	IC50, cell viability 72 h (SG3199) [µM]	IC50, cell viability 72 h (Trametinib) [µM]	IC50, cell viability 72 h (Olaparib) [µM]	IC50, cell viability 72 h (AZD6738) [µM]	IC50, cell viability 72 h (Doxorubicin) [µM]	IC50, cell viability 72 h (MK-2206) [µM]	IC50, cell viability 72 h (AZD8186) [µM]	IC50, cell viability 72 h (AZD5991) [µM]	IC50, cell viability 72 h (Selumetinib) [µM]	IC50, cell viability 72 h (AZD0156) [µM]	IC50, cell viability 72 h (Gefitinib) [µM]	IC50, cell viability 72 h (Savolitinib) [µM]
COLO-829 (Melanoma)	> 10	> 1	> 10	> 1	> 10	> 1	> 1	> 10	> 3	> 10	0.598	> 10	> 1	> 0.3	> 0.3	> 10	> 0.001	0.279	> 10	> 10	> 1	> 10	> 3	> 1	8.42	> 3	> 10	> 1
NCI-H747 (Colorectal Carcinoma)	4.66	> 1	> 10	0.101	2.38	> 1	> 1	> 10	2.51	> 10	0.542	> 10	> 1	> 0.3	> 0.3	> 10	> 0.001	0.0054	> 10	> 10	> 1	2.2	> 3	> 1	0.309	> 3	> 10	> 1
UMC-11 (Other Solid Carcinomas)	> 10	> 1	1.21	0.289	> 10	0.103	0.0575	5.91	> 3	> 10	> 2	> 10	> 1	> 0.3	> 0.3	> 10	> 0.001	> 1	> 10	> 10	> 1		> 3	> 1	> 10	> 3	> 10	> 1
